Laboratory results reported in US20220112309A1, “BISPECIFIC ANTIBODY AGAINST CD3 AND CD20 IN COMBINATION THERAPY FOR TREATING DIFFUSE LARGE B-CELL LYMPHOMA” (GENMAB A/S, priority 2020, published 2022).

Columns and labels:
Raji [1] = assay type: cell-based; conditions: 48 hours
Protocol: (§1) Briefly, human Burkitt lymphoma (Raji) and DLBCL (SU-DHL-4) cell lines were used as target cells. Cells were cultured in culture medium (RPMI 1640 with HEPES and L-Glutamine supplemented with 10% heat-inactivated donor bovine serum with iron, and 1% [v/v] penicillin/streptomycin) to which 2 mM L-glutamine and 1 mM sodium pyruvate were added, at 37° C., 5% CO2. T cells, isolated from human healthy donor buffy coats (Sanquin) by negative selection using the RosetteSep™ Human T Cell Enrichment Cocktail (Stemcell Technologies), followed by density centrifugation over a Ficoll gradient, both according to the manufacturer's instructions, were used as effector cells. Isolated cells were washed twice in phosphate buffered saline (PBS) and counted using acridine orange/propidium iodide (AO/PI) viability staining solution (Nexcelom Bioscience) on a Cellometer® Auto 2000 Cell Viability Counter. […] B-cell viability and T-cell activation were measured by flow cytometry (count of CD22-positive cells; expression of the T-cell activation markers CD69, CD25, programmed cell death protein 1 (PD-1), and CD107 [lysosomal associated membrane protein 1; LAMP-1] on CD4+ and CD8+ T cells). Absolute cell numbers were determined by adding Accucheck Counting beads (100 μL/well) (Thermofisher) and calculated as follows:
(§2) Correction factor=([bead count1+bead count2]/average bead countplate)
(§3) Absolute cell number=[cell countsample/correction factor] • The percentage cytotoxicity was calculated as follows:
(§4) % cytotoxicity=100−([absolute cell numbersample/absolute cell numberno antibody]×100%)

SU-DHL-4 [2] = assay type: cell-based; conditions: SU-DHL-4 cells, 48 hours
Protocol: as §1, §2, §3, §4

Raji [3] = assay: in vitro T-cell activation assay, T cells incubated with Raji cells; assay type: cell-based, human; conditions: Raji target cells, 48 hours
Protocol: as §1, with “follows: […]” for “follows:”

SU-DHL-4 [4] = assay: in vitro T-cell activation assay, T cells incubated with SU-DHL-4 cells; assay type: cell-based, human; conditions: SU-DHL-4 target cells, 48 hours
Protocol: as §1, with “follows: […]” for “follows:”

R/R B-NHL = assay: ongoing clinical trial of epcoritamab monotherapy (NCT03625037); assay type: in vivo
From the text: Epcoritamab as monotherapy is currently in a clinical trial for the treatment of relapsed/refractory (R/R) B-NHL (ClinicalTrials.gov Identifier: NCT03625037).

[5] = gemcitabine and/or oxaliplatin at EC30 concentrations, with or without epcoritamab
[6] = epcoritamab 0.01 pg/mL-100 ng/mL, flow cytometry
[7] = gemcitabine 1 nM, oxaliplatin 0.3 μM
[8] = epcoritamab alone 0.01 pg/mL-100 ng/mL

Row | Compound | cytotoxicity of B cells (Raji [1]; [5]) | cytotoxicity of B cells (SU-DHL-4 [2]; [5]) | T-cell activation (upregulation of CD69, CD25, PD-1, and LAMP-1 expression) (Raji [3]; [6]) | Epcoritamab-induced T-cell activation in the presence of gemcitabine, oxaliplatin, or the combination (Raji [3]; [7]) | T-cell activation (upregulation of CD69, CD25, PD-1, and LAMP-1 expression) (SU-DHL-4 [4]; [6]) | Epcoritamab-induced T-cell activation in the presence of gemcitabine, oxaliplatin, or the combination (SU-DHL-4 [4]; [7]) | T-cell-mediated cytotoxicity (decrease in the number of viable B cells) (Raji [1]; [8]) | T-cell-mediated cytotoxicity (decrease in the number of viable B cells) (SU-DHL-4 [2]; [8]) | dose-limiting toxicities (R/R B-NHL; human, in vivo) | tolerated dose (R/R B-NHL; monotherapy, R/R B-NHL patients, preliminary data)
1 | Nc1ccn(C2OC(CO)C(O)C2(F)F)c(=O)n1 (stereo not shown) [gemcitabine, 4-amino-1-[3,3-difluoro-4-hydroxy-5-(hydroxymethyl)oxolan-2-yl]-1,2-dihydropyrimidin-2-one, reference compound] | induced cytotoxicity of B cells | induced cytotoxicity of B cells |  |  |  |  |  |  |  | 
2 | epcoritamab: IgG1 bispecific CD3xCD20 antibody; heavy and light chain pairs of SEQ ID NOs: 24 and 25, and 26 and 27; CAS 2134641-34-0 |  |  | concentration-dependent activation of both CD4+ (data not shown) and CD8+ T cells | not affected | concentration-dependent activation of both CD4+ (data not shown) and CD8+ T cells | not affected | concentration-dependent T-cell-mediated cytotoxicity | concentration-dependent T-cell-mediated cytotoxicity | no dose-limiting toxicities reported | tolerated at doses up to at least 48 mg, including 60 mg
